Measured values taken from patent US12180434B2, “Spiro compounds as malodor counteracting ingredients” (Firmenich SA, priority 2017, dated 2024).
Counter-ions that a name gives are not always drawn.

What follows are molecules tested against T1, OR51E1 olfactory receptor (Homo sapiens, UniProt Q8TCB6) (assay: Inhibitory dose-response assay in a cell line expressing the butyric acid olfactory receptor OR51E1). Settings: highly stringent screening conditions; cells treated with 67 μM butyric acid (EC94); read-out: calculated IC50, inhibitor of the butyric acid olfactory receptor OR51E1.
T1 construct: expressed in transfected cells
T1 sequence (Q8TCB6 1-318): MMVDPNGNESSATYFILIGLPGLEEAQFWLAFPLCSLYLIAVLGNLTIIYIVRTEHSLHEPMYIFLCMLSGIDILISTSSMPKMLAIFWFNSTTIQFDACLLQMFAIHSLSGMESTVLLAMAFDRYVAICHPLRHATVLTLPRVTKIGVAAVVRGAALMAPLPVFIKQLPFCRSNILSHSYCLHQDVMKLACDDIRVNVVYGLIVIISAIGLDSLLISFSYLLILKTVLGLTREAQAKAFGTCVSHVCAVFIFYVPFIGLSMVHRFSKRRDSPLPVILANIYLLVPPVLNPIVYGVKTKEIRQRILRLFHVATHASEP
Assay type: cell-based
An IC50 of 45.2 µM was found for `CC(=O)O[C@@H]1C(C)(C)CCC[C@]12CC=C(C)C[C@H]2C` (racemic) [Compound 1, (1RS,6RS,11RS)-2,2,9,11-tetramethylspiro[5.5]undec-8-en-1-yl acetate] in this work. An IC50 of 78.1 µM was found for `CC(=O)OC1C(C)(C)CCCC12CC=C(C)CC2C` (centres unmarked) [Compound 6, (3,5,10,10-tetramethylspiro[5.5]undec-2-en-11-yl) acetate] in this work. An IC50 of 68.6 µM was found for `CC(=O)O[C@H]([C@H]1CCCC[C@@H]1C)C(C)(C)C` (racemic) [Compound 14, (1RS)-2,2-dimethyl-1-[(1SR,2SR)-2-methylcyclohexyl]propyl acetate] in this work. An IC50 of 84.3 µM was found for `CC(=O)OC1C(C)(C)CCCC12CC=CC2` (centres unmarked) [Compound 7, (9,9-dimethylspiro[4.5]dec-2-en-10-yl) acetate] in this work. An IC50 of 46.9 µM was found for `CC1CC=CCC12CCCC(C)(C)C2OC=O` (centres unmarked) [Compound 5, (5,10,10-trimethylspiro[5.5]undec-2-en-11-yl) formate] in this work. An IC50 of 805 µM was found for `CC1CCCCC12CCCCC2O` (centres unmarked) [Compound 12, 11-methylspiro[5.5]undecan-5-ol] in this work. An IC50 of 4.74 µM was found for `CC(=O)OC1C(C)(C)CCCC12C(C)C=CCC2C` (centres unmarked) [Compound 3, (1,5,10,10-tetramethylspiro[5.5]undec-3-en-11-yl) acetate] in this work. An IC50 of 43.4 µM was found for `CC(=O)OC(C1C(C)C=C(C)CC1C)C(C)(C)C` (centres unmarked) [Compound 17, [2,2-dimethyl-1-(2,4,6-trimethylcyclohex-3-en-1-yl)propyl]acetate] in this work. An IC50 of 18.6 µM was found for `CC(=O)OC1C(C)(C)CCCC12CC(C)=C(C)C2` (centres unmarked) [Compound 2, (2,3,9,9-tetramethylspiro[4.5]dec-2-en-10-yl) acetate] in this work. An IC50 of 193 µM was found for `COC1C(C)(C)CCCC12CC=CC2` (centres unmarked) [Compound 8, 10-methoxy-9,9-dimethylspiro[4.5]dec-2-ene] in this work.

Same assay, conditions: table; butyric acid at EC80, EC87, EC90, or EC100; read-out: IC50
An IC50 of 170 µM was found for `CC(=O)O[C@H]([C@H]1CCCC[C@@H]1C)C(C)(C)C` (racemic) [Compound 14, (1RS)-2,2-dimethyl-1-[(1SR,2SR)-2-methylcyclohexyl]propyl acetate] in this work.
